# Results taken from patent publication US7897591B2, “Method of treating fatty liver disease” (priority 2005, dated 2011).
# How the values were obtained:
# [1] = tested on: C57BL/6 mice; experiment: Serum liver function tests (AP, ALT, total and direct bilirubin) in HCD mouse model; format: in vivo
# Method: Experiments were performed on 5-6 week-old C57BL/6 mice (Jackson Laboratories, Bar Harbor, Me.). The animals, in groups of five, were housed in a barrier room and were acclimated to their environment for at least 72 hours prior to the initiation of each experiment. Animal protocols complied with the NIH Animal Research Advisory Committee guidelines and were approved by the Children's Hospital Boston Animal Care and Use Committee. Control animals (n=5) received normal chow and water ad libitum. All animals in the experimental groups were fed a fat-free, high carbohydrate liquid diet (HCD) ad libitum placed in one bottle per cage as previously described (3, 62). No additional sources of nutrition or hydration were provided. The HCD liquid solution contained 20% dextrose, a commercial mixture of 2% essential and nonessential amino acids (TrophAmine, B. Braun Medical, Irvine, Calif.), 2 ml trace elements (Trace Elements Injection 4, USP—Pediatric, American Regent Shirley, N.Y.), and 5 ml multivitamins (M.V.I. Pediatric™, Mayne Pharma, Paramus, N.J.). Each liter of HCD contained 30 meq sodium, 20 meq potassium chloride, 15 meq calcium, 10 meq magnesium, and 10 mM phosphate. The bottles were replaced daily with fresh HCD solution. HCD animals (n=5) received HCD only and no additional treatment for 19 days. The HCD+MAR animals (n=15) additionally received 100 mg/kg of Marimastat™ in 0.45% methylcellulose (Sigma-Aldrich Corporation, St. Louis, Mo.) vehicle twice daily via orogastric gavage. The animals were individually weighed every third day and at sacrifice. Mice were anesthetized with 300 μl of 2.5% Avertin (Tribromoethanol, Sigma-Aldrich Corporation, St. Louis, Mo.) by intraperitoneal injection. Approximately 400 μl of blood was collected from each mouse via retro-orbital puncture. The specimens were then placed into serum separator tubes (Becton Dickinson, Franklin Lakes, N.J.), and centrifuged at 4° C. at 8000 rpm for 10 minutes to separate serum. Serum was frozen at −80° C. and delivered to the Clinical Laboratory at Children's Hospital Boston for measurement of aspartate aminotransferase (AST), alanine aminotransferase (ALT), alkaline phosphatase (AP), and total (TB) and direct bilirubin (DB) levels. Furthermore, a fatty acid profile was performed on these samples and TNF-α soluble receptor II levels were determined as described below.
# [2] = tested on: SREBP-1c; experiment: Western blot of liver SREBP-1c; format: in vivo, mouse; conditions: across the treatment groups
# Method: Control animals (n=5) received normal chow and water ad libitum. All animals in the experimental groups were fed a fat-free, high carbohydrate liquid diet (HCD) ad libitum placed in one bottle per cage as previously described (3, 62). No additional sources of nutrition or hydration were provided. The HCD liquid solution contained 20% dextrose, a commercial mixture of 2% essential and nonessential amino acids (TrophAmine, B. Braun Medical, Irvine, Calif.), 2 ml trace elements (Trace Elements Injection 4, USP—Pediatric, American Regent Shirley, N.Y.), and 5 ml multivitamins (M.V.I. Pediatric™, Mayne Pharma, Paramus, N.J.). Each liter of HCD contained 30 meq sodium, 20 meq potassium chloride, 15 meq calcium, 10 meq magnesium, and 10 mM phosphate. The bottles were replaced daily with fresh HCD solution. HCD animals (n=5) received HCD only and no additional treatment for 19 days. The HCD+MAR animals (n=15) additionally received 100 mg/kg of Marimastat™ in 0.45% methylcellulose (Sigma-Aldrich Corporation, St. Louis, Mo.) vehicle twice daily via orogastric gavage. The animals were individually weighed every third day and at sacrifice. […] The assay was read at 595 nm and analyzed with Softmax® PRO Software (Molecular Devices Corporation, Sunnyvale, Calif.). 30 ug of protein per sample were analyzed by SDS-PAGE. […]
compound,measurement,setting,value
CNC(=O)[C@@H](NC(=O)[C@H](CC(C)C)[C@H](O)C(=O)NO)C(C)(C)C [Marimastat],total bilirubin level,[1]; HCD+MAR group compared to HCD-only group,significantly lower
same,serum alanine amino transferase (ALT) level,"[1]; HCD+MAR group vs HCD-only, P<0.001",lower
same,serum alkaline phosphatase (AP) level,"[1]; HCD+MAR group, P<0.001",significantly lower
same,direct bilirubin (DB) level,"[1]; all 15 mice in HCD+MAR group, P<0.001",0
same,SREBP-1c protein level,[2],unchanged
